Measurements taken from patent publication US10731222B2 (RNA Diagnostics Inc., priority 2013, dated 2020).
“Also recorded” adds a separate entry of the source.

Tests used:
[1] = system: A2780 ovarian cancer cells; assay: RNA disruption in drug-treated A2780 cells (Agilent Bioanalyzer electropherogram, RDI); type: cell-based, human
Experimental: RNA was isolated from ovarian cancer cell line A2780 cells which had been treated with 10 μM docetaxel in 50% media or 20 μM epirubicin, each in 50% media. Cells were treated with the chemotherapeutic for 24 hours at 37° C. Isolated RNA was separated by microcapillary electrophoresis using the Agilent 2100 Bioanalyzer.
Cells were plated and treated with docetaxel concentrations ranging from 0.001-40 μM for 24 to 72 hours to assess the effect on cell number, RNA content, and integrity (measured using a Bioanalyzer 2100 from Agilent Technologies, Inc.).
A2780 cells treated for up to 72 hours with docetaxel at 0.005 uM and 0.2 uM, were analyzed for the amount of RNA per cell. RNA was isolated and electophoretically separated using an Agilent Bioanalyzer.
RNA was isolated and electrophoretically separated on an Agilent Bioanalyzer. As shown in FIG. 24D bands appeared just below the 28S (e.g. intermediate) and 18S bands (e.g. low banding region) at 0.005 uM and peaked at 0.2 uM.
A time course experiment was conducted in A2780 cells. Cells were treated for up to 72 hours with docetaxel at 0.005 uM and 0.2 uM. RNA was isolated and run on an Agilent Bioanalyzer.
The effect of a caspase inhibitor on RNA integrity changes was next assessed. Cells were treated with or without docetaxel at a concentration of 0.2 uM in the presence or absence of the caspase inhibitor Q-DEVD-OPH (Biovision Laboratories) at a concentration of 10 uM.

parental A2780 cells = assay: Clonogenic assay, drug-sensitive parental cells; type: cell-based; conditions: Homo sapiens, 50% of colony formation suppressed
From the text: (§1) RDA like clonogenic assays can be used to identify drugs that are cytotoxic (FIG. 24C iv). […] The cell lines have widely differing sensitivity to docetaxel in a clonogenic assay, with IC50 values differing by over three orders of magnitude.

[2] = system: docetaxel-resistant A2780DXL cells; assay: Clonogenic assay, docetaxel-resistant cells; type: cell-based; conditions: 50% of colony formation suppressed
From the text: (§2) A docetaxel A2780 resistant cell line was made as described in Li et al., Int. J. Mol. Med 2004 14(20): 257-264.
as §1

[3] = system: docetaxel-resistant A2780DXL cells; assay: RNA disruption in docetaxel-resistant cells; type: cell-based; conditions: docetaxel treatment
Experimental: as §2
A time course experiment was conducted. Sensitive parental and docetaxel resistant A2780 cells were treated with docetaxel for 24 hours. RNA was isolated and run on an Agilent Bioanalyzer.
The a\Ability of RDA to detect potentiators of docetaxel (Dxl) sensitivity. […] Thus, RDA may be used to screen for potentiators of chemotherapy drug cytotoxicity.

[4] = system: CaOV3 ovarian tumour cell line; assay: Docetaxel-induced RNA disruption, CaOV3; type: cell-based
[5] = system: Jurkat leukemia cell line; assay: Docetaxel-induced RNA disruption, Jurkat; type: cell-based
[6] = system: A2780 ovarian tumour cell line; assay: Apoptosis markers in drug-treated cells (Annexin V-FITC, DNA content, PARP cleavage, caspase activity); type: cell-based, human
Experimental: Various cell lines were treated with anti-cancer agents and the effects of these treatments on the cellular RNA banding pattern, Annexin V-FITC binding to cells, cellular DNA content, poly ADP ribose polymerase (PARP) cleavage, and cell proliferation in the absence of drug post-treatment were assessed.

A2780 cells = assay: Cell counts and Recovery Assay of A2780 cells after docetaxel

## CC(=O)O[C@@]12CO[C@@H]1C[C@H](O)[C@@]1(C)C(=O)[C@H](O)C3=C(C)[C@@H](OC(=O)[C@H](O)[C@@H](NC(=O)OC(C)(C)C)c4ccccc4)C[C@@](O)([C@@H](OC(=O)c4ccccc4)[C@H]21)C3(C)C [docetaxel]
[1]; 0.005 uM and 0.2 uM, up to 72 hours
  amount of RNA per cell: increase in a time-dependent and dose-dependent manner
[1]; 10 μM in 50% media, 24 hours, 37° C.
  electropherogram pattern: an intermediate peak and a peak adjacent to the 18S peak
[1]; 0.2 micromolar, 72 hrs, 0.23 prior to drug
  RDI: 3.09
[1]; 0.2 micromolar, 72 hrs, 1220 prior to drug
  RNA concentration: about 359 ng/microliter
[1]; 24 hours
  concentration at which the novel banding peaked: 0.2 µM
[1]; after 72 hr, little change at 8, 24 or 48 hr
  ratio of Low C Area/(28S+18S): dramatic increase
[1]; concentrations ≥0.005 uM
  RIN: did not change significantly
[1]; dose and time-dependent
  concentration giving reductions in cell number and RIN and increased RDI: ≥ 0.1 µM
[1]; dose- and time-dependent
  response of cells in culture to the agent: RNA disruption
Parental A2780 cells
  IC50: ~1.1 nM
[2]
  IC50: ~650 nM
[3]
  RNA disruption / banding below 28S and 18S: no banding is evident; also recorded: did not result in RNA disruption; also recorded: do not show docetaxel-induced RNA disruption
[4]
  docetaxel-induced RNA disruption: RNA disruption was also observed
[5]
  docetaxel-induced RNA disruption: RNA disruption was also observed
[6]
  Annexin V-FITC binding: enhance Annexin V-FITC binding to cells
  DNA laddering: no DNA laddering was observed
  PARP cleavage: induce the cleavage of poly ADP ribose polymerase (PARP)
  cellular DNA content: generate cells containing a sub-G1 level of DNA content
  cellular caspase activity: activated cellular caspase activity
[6]; after drug-treatment
  membrane integrity (propidium iodide staining): lack of propiclium iodide staining
A2780 cells; 5 nM
  recovery in drug-free media: permitted cell recovery, but only when the incubation period was 48 hours or less
A2780 cells; 0.2 uM for up to 72 hours, washed and replated
  recovery in drug-free media: No resumption of cell proliferation
A2780 cells; up to 72 hours
  concentrations at which cell numbers remained constant: greater than or equal to 0.005 uM
